Experimental data: PubChem BioAssay (NCI)
Values joined by “and” are separate entries in the source; they are usually repeats but may differ in a detail not shown here. Identical values can stand only once.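 Following 48 hours of exposure in 96-well plates, responses at five concentrations were used to interpolate endpoints linearly. Abbreviation: GI50, concentration required for 50% inhibition of growth. TGI: total growth inhibition.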

Tests used:
Assay in all cases: NCI-60 cell line screen, 48 h
SK-OV-3 ovarian = tested on: SK-OV-3 ovarian
RXF 393 renal = tested on: RXF 393 renal
MCF7 breast = tested on: MCF7 breast
TK-10 renal = tested on: TK-10 renal
M14 melanoma = tested on: M14 melanoma
UACC-62 melanoma = tested on: UACC-62 melanoma
T-47D breast = tested on: T-47D breast
NCI/ADR-RES ovarian = tested on: NCI/ADR-RES ovarian
OVCAR-3 ovarian = tested on: OVCAR-3 ovarian
SF-539 CNS = tested on: SF-539 CNS

Row | Compound | GI50 (SK-OV-3 ovarian) | TGI (SK-OV-3 ovarian) | GI50 (RXF 393 renal) | TGI (RXF 393 renal) | GI50 (MCF7 breast) [µM] | TGI (MCF7 breast) [µM] | GI50 (TK-10 renal) | TGI (TK-10 renal) | GI50 (M14 melanoma) | TGI (M14 melanoma) [µM] | GI50 (UACC-62 melanoma) [µM] | TGI (UACC-62 melanoma) | GI50 (T-47D breast) | TGI (T-47D breast) | GI50 (NCI/ADR-RES ovarian) | TGI (NCI/ADR-RES ovarian) [µM] | GI50 (OVCAR-3 ovarian) | TGI (OVCAR-3 ovarian) | GI50 (SF-539 CNS) | TGI (SF-539 CNS)
1 | CC(C)[C@@H]1CC[C@@H]2[C@@H]1[C@H](OC(=O)/C=C/c1ccccc1)[C@]1(C(C)C)C[C@@H](OC(=O)CO)[C@@]2(C)O1 | 10.3 µM | 32.5 µM | 3.31 µM | 8.31 µM | 4.88 | 10.5 | 6.46 µM | 15.4 µM | 5.83 µM | 12.1 | 4.94 | 9.97 µM | 5.27 µM | 12.5 µM | 0.0795 µM | 5 | 6.69 µM | 11.9 µM | 5.25 µM | 10.2 µM
2 | NC[C@@](O)(c1ccc(Cl)cc1)c1ccc(-c2cn[nH]c2)cc1 | 2.23 µM | > 10 µM | 0.298 µM and 0.328 µM | 2.51 µM and 2.05 µM | 1.1 | 2.54 | 0.083 µM and 0.268 µM | 0.875 µM and 1.54 µM | 2.34 µM | 5.98 | 3.2 | > 10 µM | 1.42 µM and 1.23 µM | 2.87 µM and 2.83 µM | 3.48 µM and 2.2 µM |  | 3.22 µM and 1.96 µM | > 25.6 µM and 4.44 µM | 1.01 µM | 2.36 µM
3 | O=C(Nc1ccc(Br)cc1F)c1cc(Br)ccc1O | 1.62 µM | 8.12 µM | 0.661 µM | 3.33 µM | 0.906 | 8.96 | 3.12 µM | 12.3 µM | 0.713 µM | 5.48 | 0.303 | 1.23 µM | 0.457 µM | 6.87 µM | 0.876 µM | 5.44 | 0.535 µM | 8.62 µM | 0.552 µM | 4.64 µM
4 | CN1CCCCC1CCN1c2ccccc2Sc2ccc(S(C)=O)cc21 (centres undefined) |  | > 100 µM |  | > 100 µM |  | > 100 |  | > 100 µM |  | > 100 |  | > 100 µM |  | > 100 µM |  | > 100 |  | > 100 µM |  | > 100 µM
5 | CCN1CCN(C(=O)[C@]23CCC(C)(C)C[C@@H]2C2=CC[C@@H]4[C@@]5(C)C/C(=C/c6cccnc6)C(=O)C(C)(C)[C@@H]5CC[C@@]4(C)[C@]2(C)CC3)CC1 | 4.19 µM | 16.8 µM | 1.42 µM | 2.77 µM | 1.4 | 3.07 | 3.86 µM | 15.4 µM | 1.6 µM | 3.15 | 1.28 | 2.83 µM | 2.61 µM | 13.7 µM | 1.57 µM | 3.46 | 1.51 µM | 2.95 µM | 1.62 µM | 3 µM
6 | COc1ccc(CC2C3=C(CCCC3)CCN2C)cc1 (centres undefined) |  | > 100 µM |  | > 100 µM |  | > 100 |  | > 100 µM |  | > 100 |  | > 100 µM |  | > 100 µM |  | > 100 |  | > 100 µM |  | > 100 µM
7 | C/C(=N\NC(=O)c1ccncc1)c1ccc(O)cc1O | 5.34 µM | > 100 µM | 12.2 µM | > 100 µM | 4.92 | > 100 | > 100 µM | > 100 µM | 6.44 µM | > 100 | 3.3 | > 100 µM | 11.4 µM | > 100 µM | 3.42 µM | > 100 | 4.59 µM | > 100 µM | 5.67 µM | > 100 µM
8 | CC(C)Oc1ccc(C(=O)N[C@H](CNC(=O)CN(C)C)Cc2ccc(-c3cn4cccc([C@H](C)O)c4n3)cc2)cc1Cl | 0.0694 µM | 22.9 µM | 0.0711 µM | 13.4 µM | 0.0366 | 19.5 | 11.8 µM | 24.6 µM | 0.0301 µM | 0.15 | 0.0706 | 24.3 µM | 3.72 µM | 30.3 µM | 2.64 µM | 19.8 | 0.0393 µM | 15.7 µM | 0.0323 µM | 1.19 µM
9 | O=C(/C=C/c1cccnc1)c1ccccc1O | 33.7 µM | > 100 µM | 13.8 µM | 27.3 µM | 32.3 | > 100 | 27.6 µM | > 100 µM | 16.9 µM | 34.1 | 16.2 | 35.3 µM | 21 µM | > 100 µM | 24.6 µM | > 100 | 20.5 µM | 55.2 µM | 14.4 µM | 34.7 µM
10 | CC(=O)c1ccc(NCN2C(=O)c3ccccc3C2=O)cc1 |  | > 100 µM |  | > 100 µM |  | > 100 |  | > 100 µM |  | > 100 |  | > 100 µM |  | > 100 µM |  | > 100 |  | > 100 µM |  | > 100 µM
11 | CC(=O)OCC1OC(n2c(-c3ccccc3)c(C)c(C)c(C#N)c2=S)C(OC(C)=O)C(OC(C)=O)C1OC(C)=O (centres undefined) | 13.2 µM and > 100 µM | 48.8 µM and > 100 µM | 23.8 µM and 68.3 µM | > 100 µM |  | > 100 | 48.6 µM and > 100 µM | > 100 µM | 15.4 µM and 35 µM | > 100 |  | > 50 µM and 43.5 µM |  | > 100 µM |  | > 100 |  | > 100 µM | 14.4 µM and > 100 µM | 36.8 µM and > 100 µM
12 | O=C1c2ccccc2C(=O)c2c1ccc1c2OCO1 |  | > 100 µM |  | > 100 µM |  | > 100 |  | > 100 µM |  | > 100 |  | > 100 µM |  | > 100 µM |  | > 100 |  | > 100 µM |  | > 100 µM
